# Reference: the supplement of paper PMC10307832
# Legend:
# Test in all cases: relative viability (nuclei count vs DMSO), 5 days (fraction); higher = more cells survive
# [1] = compound: C#Cc1cccc(Nc2ncnc3cc(OC)c(OCCCCCCC(=O)NO)cc23)c1 [CUDC-101] + Nc1nc2[nH]cc(CCc3ccc(C(=O)N[C@@H](CCC(=O)O)C(=O)O)cc3)c2c(=O)[nH]1 [Pemetrexed] (partner 0.2 µM)
# Method in brief: (§1)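 The day after seeding in 1536-well plates, lung cancer cell lines were treated by pin tool with a single drug, or with a fixed anchor-drug dose together with five library-drug doses (not always all listed) in √10 steps. After 5 days, a combined fix-and-stain solution (final 0.05% Triton X-100, 1% formaldehyde, 1 ug/ml Hoechst) was added. Nuclei counted on 4× images gave relative viability as treated counts over vehicle counts, reported as the median of duplicate plates.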
# [2] = compound: C1=CC=C2C(=C1)N=C(S2)C(C#N)C3=NC(=NC=C3)NCCC4=CN=CC=C4 + CC(=O)Nc1cccc(-n2c(=O)n(C3CC3)c(=O)c3c(Nc4ccc(I)cc4F)n(C)c(=O)c(C)c32)c1 [Trametinib] (partner 0.02 µM)
# Method in brief: as §1
# [3] = compound: C1=CC=C2C(=C1)N=C(S2)C(C#N)C3=NC(=NC=C3)NCCC4=CN=CC=C4 + CC1(C)CCC(c2ccc(Cl)cc2)=C(CN2CCN(c3ccc(C(=O)NS(=O)(=O)c4ccc(N[C@H](CCN5CCOCC5)CSc5ccccc5)c(S(=O)(=O)C(F)(F)F)c4)cc3)CC2)C1 [Navitoclax] (partner 0.5 µM)
# Method in brief: as §1
# [4] = compound: COc1cc(N2CCC(N3CCN(C)CC3)CC2)ccc1Nc1ncc(Cl)c(Nc2ccccc2S(=O)(=O)C(C)C)n1 [NVP-TAE684] + Cc1nc(NC(=O)N2CCC[C@H]2C(N)=O)sc1-c1ccnc(C(C)(C)C(F)(F)F)c1 [Alpelisib] (partner 2 µM)
# Method in brief: as §1
Cell Line,relative viability ([1]; first compound 0.01 µM),relative viability ([1]; first compound 0.03162 µM),relative viability ([1]; first compound 0.1 µM),relative viability ([1]; first compound 0.3162 µM),relative viability ([1]; first compound 1 µM),relative viability ([2]; first compound 0.005 µM),relative viability ([2]; first compound 0.01581 µM),relative viability ([2]; first compound 0.05 µM),relative viability ([2]; first compound 0.1581 µM),relative viability ([2]; first compound 0.5 µM),relative viability ([3]; first compound 0.005 µM),relative viability ([3]; first compound 0.01581 µM),relative viability ([3]; first compound 0.05 µM),relative viability ([3]; first compound 0.1581 µM),relative viability ([3]; first compound 0.5 µM),relative viability ([4]; first compound 0.2 µM),relative viability ([4]; first compound 0.6325 µM),relative viability ([4]; first compound 2 µM)
201T,0.281,0.387,0.368,0.356,0.29,0.675,0.756,0.739,0.748,0.693,1.14,1.22,1.14,1.24,1.2,0.976,1.05,0.839
A549,–,–,–,–,–,–,–,–,–,–,1.26,1.19,1.11,1.31,1.29,0.823,0.58,0.253
A-427,0.954,0.971,0.982,0.821,0.763,0.882,0.714,0.683,0.81,0.804,0.964,0.95,0.956,0.896,1.05,1.12,–,0.899
ABC-1,–,–,–,–,–,–,–,–,–,–,–,–,–,–,–,1.07,–,0.537
BEN,0.812,0.727,0.78,0.703,0.769,1.08,1.11,1.15,1.05,1.2,0.0669,0.0686,0.0618,0.134,0.0603,–,0.955,1.02
CAL-12T,1.45,1.13,1.19,1.14,1.18,0.278,0.327,0.395,0.34,0.384,0.993,1.38,1.11,1.35,0.993,1.24,1.38,0.535
COR-L23,0.184,0.196,0.2,0.186,0.175,0.582,0.547,0.597,0.717,0.608,0.929,0.94,1.1,1.04,1.15,0.762,0.517,0.237
COR-L 105,1.04,0.967,1.1,1.12,0.931,0.379,0.423,0.412,0.474,0.498,0.819,0.753,0.599,0.667,0.729,0.852,0.926,0.538
Calu-6,–,–,–,–,–,–,–,–,–,–,0.785,0.834,0.819,0.961,0.768,0.854,0.912,0.517
ChaGo-K-1,0.259,0.246,0.259,0.256,0.256,0.683,0.949,0.913,0.957,0.715,0.955,–,0.838,1.21,0.954,–,–,–
EBC-1,–,–,–,–,–,–,–,–,–,–,0.402,0.426,0.317,0.472,0.298,0.772,0.824,0.559
EKVX,0.395,0.435,0.442,0.373,0.35,0.228,0.328,0.282,0.299,0.294,0.947,0.986,1.09,0.949,1.11,0.936,0.781,0.63
EMC-BAC-2,0.464,0.399,0.46,0.394,0.354,1.03,0.938,0.812,0.963,0.855,0.823,1.19,1.14,1.2,1.01,0.704,0.759,0.436
EPLC-272H,0.345,0.316,0.428,0.387,0.235,0.392,0.277,0.301,0.336,0.265,0.94,1.05,1.14,1.04,1.08,0.799,–,0.9
H3255,0.62,0.543,0.408,0.449,0.304,0.533,0.577,0.62,0.697,0.726,0.591,0.424,0.567,0.689,0.624,0.716,0.608,0.491
HARA,0.253,0.237,–,0.243,0.176,0.685,0.475,0.49,1.31,0.576,1.09,1.16,1.14,1.22,1.21,0.884,0.719,0.346
HCC-15,0.212,0.244,0.226,0.217,0.198,0.396,0.418,0.369,0.378,0.356,0.736,0.787,0.664,0.749,0.602,0.865,0.933,0.678
HCC-44,0.629,0.657,0.71,0.645,0.693,1.06,1.1,1.02,1.07,0.967,0.759,1.13,0.906,1.02,0.872,0.835,0.784,0.313
HCC-78,0.876,0.942,0.921,0.912,0.862,1.01,0.782,0.924,0.693,0.729,0.454,0.774,0.623,0.912,0.818,0.319,0.198,0.282

Cell Line,relative viability ([1]; first compound 0.01 µM),relative viability ([1]; first compound 0.03162 µM),relative viability ([1]; first compound 0.1 µM),relative viability ([1]; first compound 0.3162 µM),relative viability ([1]; first compound 1 µM),relative viability ([2]; first compound 0.005 µM),relative viability ([2]; first compound 0.01581 µM),relative viability ([2]; first compound 0.05 µM),relative viability ([2]; first compound 0.1581 µM),relative viability ([2]; first compound 0.5 µM),relative viability ([3]; first compound 0.005 µM),relative viability ([3]; first compound 0.01581 µM),relative viability ([3]; first compound 0.05 µM),relative viability ([3]; first compound 0.1581 µM),relative viability ([3]; first compound 0.5 µM),relative viability ([4]; first compound 0.2 µM),relative viability ([4]; first compound 0.6325 µM),relative viability ([4]; first compound 2 µM)
HCC-366,0.163,0.157,0.137,0.177,0.201,0.281,0.378,0.314,0.404,0.307,0.853,0.998,1.04,1.28,0.98,0.758,0.342,0.0918
HCC-827,0.237,0.241,0.163,0.137,0.138,0.503,0.534,0.497,0.486,0.497,1.07,1.07,1.02,1.05,1.04,1.05,1.05,0.822
HOP-62,0.295,0.355,0.346,0.349,0.311,0.359,0.394,0.394,0.37,0.366,0.854,1.25,1.05,1.16,0.871,1.16,0.891,0.946
IA-LM,–,–,–,–,–,–,–,–,–,–,–,0.816,0.817,0.826,0.568,0.588,0.55,0.431
LC-2-ad,0.247,0.271,0.284,0.26,0.284,0.881,0.979,0.891,0.928,0.829,0.358,0.497,0.447,0.581,0.351,0.813,0.801,0.232
LCLC-97TM1,0.166,0.172,0.183,0.157,0.135,0.152,0.202,0.172,0.239,0.2,0.382,0.429,0.339,0.596,0.288,0.194,0.233,0.127
LCLC-103H,0.472,0.537,0.486,0.456,0.429,0.648,0.735,0.692,0.695,0.659,–,–,–,–,–,0.99,0.986,0.995
NCI-H358,0.181,0.187,0.166,0.161,0.154,0.125,0.132,0.113,0.139,0.15,–,–,–,–,–,0.751,0.478,0.203
NCI-H522,0.87,0.802,1.05,0.963,0.765,0.98,0.846,0.766,0.755,0.761,–,–,–,–,–,–,–,–
NCI-H650,1.02,0.916,1,0.904,0.803,0.969,0.968,0.863,1.04,1.04,–,–,–,–,–,1.06,0.961,0.571
NCI-H661,0.956,0.903,0.953,0.968,0.631,0.423,0.535,0.542,0.674,0.589,–,–,–,–,–,0.808,–,0.596
NCI-H727,–,–,–,–,–,0.39,0.364,0.399,0.381,0.407,0.465,0.334,0.347,0.414,0.397,0.591,0.409,0.275
NCI-H1299,–,–,–,–,–,–,–,–,–,–,1.08,1.11,1.05,1.11,1.09,0.974,1.1,0.992
NCI-H1563,0.78,0.758,0.844,0.773,0.512,–,–,–,–,–,–,–,–,–,–,0.802,0.828,0.903
NCI-H1648,0.826,0.744,0.805,0.741,0.535,–,0.486,–,0.499,0.498,–,–,–,–,–,–,–,–
NCI-H1650,0.381,0.297,0.389,0.397,0.351,0.49,0.492,0.604,0.715,0.513,0.964,1.17,1.22,1.31,1.07,–,–,–
NCI-H1703,–,–,–,–,–,–,–,–,–,–,1.01,1.04,1.02,1.14,1.02,0.401,0.334,0.21
NCI-H2342,0.842,0.757,0.76,0.819,0.742,0.733,0.89,0.867,0.798,0.844,–,–,–,–,–,–,–,–
SW 900,0.502,0.429,0.452,0.454,0.448,0.586,0.806,0.584,1.06,0.648,–,–,–,–,–,–,–,–
